Measured values taken from article PMC4364779, “IMD-4690, a Novel Specific Inhibitor for Plasminogen Activator Inhibitor-1, Reduces Allergic Airway Remodeling in a Mouse Model of Chronic Asthma via Regulating Angiogenesis and Remodeling-Related Mediators” (PLoS ONE, 2015).
pIC50: −log10 of the molar value.

What was measured:
[1] = target: T1, Heparin Cofactor 2 (HC2/SERPIND1) (Homo sapiens, UniProt P05546); test: SERPIN inhibition selectivity, similar enzymatic method; type: biochemical; conditions: Ser protease: Thrombin
T1 sequence (P05546 20-499): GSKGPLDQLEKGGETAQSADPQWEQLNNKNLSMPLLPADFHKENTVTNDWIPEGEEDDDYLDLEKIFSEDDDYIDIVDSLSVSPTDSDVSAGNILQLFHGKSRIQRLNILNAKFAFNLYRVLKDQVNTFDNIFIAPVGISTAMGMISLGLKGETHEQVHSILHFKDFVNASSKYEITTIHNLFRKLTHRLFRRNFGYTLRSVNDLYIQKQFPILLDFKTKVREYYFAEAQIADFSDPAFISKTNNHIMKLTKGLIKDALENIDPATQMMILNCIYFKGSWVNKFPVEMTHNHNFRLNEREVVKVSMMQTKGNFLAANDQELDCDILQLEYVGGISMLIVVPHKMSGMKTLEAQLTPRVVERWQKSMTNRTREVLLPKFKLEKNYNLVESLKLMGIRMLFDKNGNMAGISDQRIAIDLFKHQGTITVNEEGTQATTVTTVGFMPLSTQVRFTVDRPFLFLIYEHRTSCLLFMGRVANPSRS
Description: (§1) Inhibitory effect of IMD-4690 on the activity of PAI-1 was measured by the direct tPA assay. Briefly, recombinant tPA and PAI-1 was mixed with IMD-4690, and then tPA substrate with fluorescent pigment (Pyr-Gly-Arg-MCA) was added in this mixture and incubated. The enzymatic activity was calculated by measuring the fluorescence. The inhibitory activity of IMD-4690 on other enzymes was measured with the similar method.

[2] = target: T2, α1-anti-plasmin (SERPINF2) (Homo sapiens, UniProt P08697); test: as above; type: biochemical; conditions: Ser protease: Plasmin
T2 sequence (P08697 40-491): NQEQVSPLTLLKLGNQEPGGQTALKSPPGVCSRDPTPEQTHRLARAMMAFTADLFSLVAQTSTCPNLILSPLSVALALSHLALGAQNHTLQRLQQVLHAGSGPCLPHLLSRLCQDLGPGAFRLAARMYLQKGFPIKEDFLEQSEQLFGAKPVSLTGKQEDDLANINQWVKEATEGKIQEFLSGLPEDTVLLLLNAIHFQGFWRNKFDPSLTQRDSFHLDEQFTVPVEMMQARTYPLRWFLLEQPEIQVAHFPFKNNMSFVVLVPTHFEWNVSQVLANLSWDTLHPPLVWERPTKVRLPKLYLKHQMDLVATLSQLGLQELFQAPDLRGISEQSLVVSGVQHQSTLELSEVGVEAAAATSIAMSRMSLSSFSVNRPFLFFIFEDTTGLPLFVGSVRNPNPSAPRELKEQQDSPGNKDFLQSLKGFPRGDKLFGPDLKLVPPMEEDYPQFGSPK
Description: as §1

[3] = tested on: chronic allergen exposure model of bronchial asthma in mice; test: Lung histopathology and morphological analyses, chronic Dp asthma model; type: in vivo, mouse
Description: (§2) All mice were sensitized on days 0 and 7 by intraperitoneal injections of 10 μg of Dp dissolved in 500 μL saline and mixed with 1mg of Alum (Sigma-Aldrich Japan). Dp-sensitized mice were challenged intranasally with 10 μg (10 μL) Dp in 70 μL saline on alternate days, 3 days per week, from days 14 to 67. The mice were also treated intraperitoneally with IMD-4690 (10 mg/kg) (Dp/IMD group) or CMC alone (Dp/CMC group) at the same day with Dp challenge. As a control, mice were challenged with saline and given CMC during this period (control/CMC group) (Fig. 1A). Each experiment was performed using six mice per group.
The lung tissues were harvested, fixed in 10% formalin, and embedded in paraffin. Three-micrometer-thick sections were stained with Giemsa, Periodic acid-Schiff (PAS) or Azan Mallory.
Sections of lung tissue were stained immunohistochemically to detect α-smooth muscle actin (SMA), platelet endothelial cell adhesion molecule-1 (PECAM-1)/CD31. Mouse monoclonal anti-smooth muscle (1:800) (Thermo Fisher Scientific Inc., Fremont, CA, USA), or ready-to-use mouse monoclonal CD31 (GeneTex Inc., Irvine, CA, USA) was used as a primary antibody. For immunohistochemical staining, the VECTASTAIN ABC Kit (Vector Laboratories) and the Vector M.O.M. Immunodetection Kit (Vector Laboratories) were used according to the manufacturers’ protocols. Diaminobenzidine was used as a substrate for the immunoperoxidase reaction. Sections were lightly counterstained with hematoxylin and analyzed by bright-field microscopy.
An OLYMPUS BX61 microscope (Olympus, Tokyo, Japan) with Scion Image software was used for the morphological analysis. Eosinophils were counted according to a previously described method. The thickness of subepithelial fibrosis and smooth muscle layer were analyzed as follows. The area of subepithelial fibrosis (stained blue) and smooth muscle layer (α-SMA positive) around a bronchus was measured. The average thickness was determined by the area of the positive layer divided by the length of the internal circumference of the area. The mean values for thickness were calculated for 8–10 bronchi per left lung lobe.
To quantify the microvessel density, the number of CD31-positive blood vessels per field was counted in 5 random fields in each sample.

[4] = tested on: chronic allergen exposure model of bronchial asthma in mice; test: Serum IgE (ELISA), chronic Dp asthma model; type: in vivo, mouse; conditions: 10 mg/kg i.p., vs Dp/CMC mice
Description: as §2
Protein concentrations were determined by the BCA method (Pierce, Rockford, IL, USA). Cytokines, growth factors, enzymes, and serum IgE were determined using commercial ELISA kits. […]

[5] = tested on: chronic allergen exposure model of bronchial asthma in mice; test: BALF cell classification, chronic Dp asthma model; type: in vivo, mouse; conditions: 10 mg/kg i.p., vs Dp/CMC mice
Description: as §2
After measurement of lung resistance, the mice were euthanized humanely by cutting the axillary artery to obtain serum samples. Following sacrifice, bronchoalveolar lavage was performed twice with saline (0.8 mL) by using a soft cannula. After counting the cell numbers in the BALF using the automated cell viability analyzer Vi-Cell (Beckman Coulter, Calif., USA), BALF samples were cytospun onto glass slides and stained with Diff-Quick (Baxter, Miami, Fla., USA) for classification.

CC(C)(C)c1ccc(Oc2cc(-c3ccc(OC(F)(F)F)cc3)ccc2OCC(=O)O)cc1 [IMD-4690, 2-[[3-(4-tert-Butylphenoxy)-4'-(trifluoromethoxy) [1,1'-biphenyl]-4-yl]oxy] acetic acid]
pIC50 [1]: < 4.60
pIC50 [2]: < 4.60
Subepithelial thickness (subepithelial fibrosis) ([3]; Azan-Mallory sections, Dp/IMD mice 10 mg/kg i.p.): significantly decreased
Vascular density (CD31-positive blood vessels) ([3]; CD31 immunohistochemistry, 10 mg/kg i.p.): significantly decreased
Number of infiltrating eosinophils in the subepithelium ([3]; Giemsa-stained lung sections, 10 mg/kg i.p., vs Dp/CMC mice): significantly decreased
Number of PAS-positive cells (mucous metaplasia) ([3]; PAS staining of lungs, 10 mg/kg i.p., vs Dp/CMC mice): decreased
Subepithelial smooth muscle thickness ([3]; α-SMA immunohistochemistry, 10 mg/kg i.p.): significant reduction
Serum IgE [4]: significantly decreased
Number of eosinophils in BALF [5]: significantly decreased
Number of lymphocytes in BALF [5]: significantly decreased
